Results: US6413960B1, “Substituted pyrazolyl benzenesulfonamides for the treatment of asthma” (G.D. Searle & Co., priority 1993, dated 2002)
Read-outs that look alike come from different tables or passages of the source.

Assays:
[1] = tested on: Male Sprague-Dawley rats (carrageenan foot edema)
Description: Rat Carrageenan Foot Pad Edema Test
Male Sprague-Dawley rats were selected in each group so that the average body weight was as close as possible. Rats were fasted with free access to water for over sixteen hours prior to the test. […] One hour later a subplantar injection of 0.1 mL of 1% solution of carrageenan/sterile 0.9% saline was administered and the volume of the injected foot was measured with a displacement plethysmometer connected to a pressure transducer with a digital indicator. Three hours after the injection of the carrageenan, the volume of the foot was again measured.

[2] = tested on: Male Sprague-Dawley rats (carrageenan hyperalgesic foot withdrawal); conditions: rat
Description: Rat Carrageenan-induced Analgesia Test
Male Sprague-Dawley rats were treated as previously described for the carrageenan Foot Pad Edema test. Three hours after the injection of the carrageenan, the rats were placed in a special plexiglass container with a transparent floor having a high intensity lamp as a radiant heat source, positionable under the floor. After an initial twenty minute period, thermal stimulation was begun on either the injected foot or on the contralateral uninjected foot. A photoelectric cell turned off the lamp and timer when light was interrupted by paw withdrawal. The time until the rat withdraws its foot was then measured. The withdrawal latency in seconds was determined for the control and drug-treated groups, and percent inhibition of the hyperalgesic foot withdrawal determined.

[3] = oral, 10 mg/kg body weight, foot volume 3 h after carrageenan
[4] = oral, 30 mg/kg body weight, inhibition of hyperalgesic foot withdrawal

Structure (SMILES) | RAT PAW EDEMA % Inhibition @ 10 mg/kg body weight ([1]; in vivo) | ANALGESIA % Inhibition @ 30 mg/kg body weight ([2]; in vivo) | RAT PAW EDEMA % Inhibition @ 10 mg/kg body weight [1, 3] | ANALGESIA % Inhibition @ 30 mg/kg body weight [2, 4]
COc1ccc(-c2cc(C(F)F)nn2-c2ccc(S(N)(=O)=O)cc2)cc1F [Example 59, 4-[5-(3-Fluoro-4-methoxyphenyl)-3-(difluoromethyl)-1H-pyrazol-1-yl]benzenesulfonamide] | 25% | 41% |  | 
NS(=O)(=O)c1ccc(-n2nc(C(F)(F)F)cc2-c2ccc(Cl)cc2)cc1 [Example 1, 4-[5-(4-Chlorophenyl)-3-(trifluoromethyl)-1H-pyrazol-1-yl]benzenesulfonamide] | 44% | 94% |  | 
NS(=O)(=O)c1ccc(-n2nc(CO)cc2-c2ccc(Cl)cc2)cc1 [Example 171, 4-[5-(4-Chlorophenyl)-3-hydroxymethyl-1H-pyrazol-1-yl]benzenesulfonamide] |  |  | 14% | 37%
COc1ccc(-c2cc(C(F)F)nn2-c2ccc(S(N)(=O)=O)cc2)cc1 [Example 60, 4-[3-Difluoromethyl-5-(4-methoxyphenyl)-1-H-pyrazol-1-yl]benzenesulfonamide] |  |  | 49% | 39%
NS(=O)(=O)c1ccc(-n2nc(C(F)F)cc2-c2ccc(Cl)cc2)cc1 [Example 58, 4-[5-(4-Chlorophenyl)-3-(difluoromethyl)-1H-pyrazol-1-yl]benzenesulfonamide] |  |  | 36% | 65%
